Source: US10981917B2, “Heterocyclic compound, its preparation method, and pharmaceutical composition comprising the same” (Daewoong Pharmaceutical Co., Ltd., priority 2017, dated 2021)

Molecular target: PRS (prolyl-tRNA synthetase) protein, PRS portion of EPRS (Homo sapiens (Human), UniProt P07814)
Assay: PRS enzyme activity inhibition experiment ([3H]proline, liquid scintillation)
Assay type: biochemical
Conditions: purified PRS protein, 37° C. for 5 to 10 minutes
Procedure: In order to confirm the biological activities of the compounds prepared in Examples, % inhibition or IC50 values of PRS enzyme ([…]) activities were calculated.
Specifically, the portion corresponding to PRS in cDNA of EPRS was subcloned, and the obtained high-purity PRS protein was purified and used in the experiment. The compounds (1 μM) prepared in Examples were added into the reaction buffer (20 mM KPO4 (pH 7.4), 6 mM MgAc, 5 mM ATP, […] tRNA, 0.5 mM DTT, […][^3H]proline (1 mCi/mL)) and allowed to react at 37° C. for 5 to 10 minutes. The reaction was terminated with 3M paper that was in advance dried by addition of 5% TCA. The radioactivity was measured using a liquid scintillation counter.
% Inhibition and IC50 values of the respective compounds were calculated and analyzed using Microsoft Excel or Sigma Plot 8.0. In Tables 1 to 3, the results are divided into A, B and C according to the range of IC50. The case where the derived IC50 is 100 nM or less is represented by “A”, the case where the IC50 is 100 to 500 nM is represented by “B”, and the case where the IC50 is 500 nM or higher is represented by “C”.

Chain of PRS (prolyl-tRNA synthetase) protein, PRS portion of EPRS (P07814 1007-1512): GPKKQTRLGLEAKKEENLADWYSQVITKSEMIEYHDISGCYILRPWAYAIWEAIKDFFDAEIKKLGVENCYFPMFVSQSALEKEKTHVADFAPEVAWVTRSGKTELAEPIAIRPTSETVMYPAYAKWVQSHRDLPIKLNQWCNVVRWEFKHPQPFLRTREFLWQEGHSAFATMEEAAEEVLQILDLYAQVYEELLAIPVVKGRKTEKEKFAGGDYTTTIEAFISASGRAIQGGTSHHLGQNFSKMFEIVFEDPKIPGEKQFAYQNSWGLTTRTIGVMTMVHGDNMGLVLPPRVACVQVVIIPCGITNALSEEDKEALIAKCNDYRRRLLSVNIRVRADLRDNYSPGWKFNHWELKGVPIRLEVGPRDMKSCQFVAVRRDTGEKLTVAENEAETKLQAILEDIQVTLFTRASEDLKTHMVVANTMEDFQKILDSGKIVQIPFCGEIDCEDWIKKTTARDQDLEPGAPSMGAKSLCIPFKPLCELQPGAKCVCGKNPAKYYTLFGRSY

Row | IC50 | Structure (SMILES)
1 | 100 to 500 nM | O[C@H]1CCCN[C@@H]1CCCn1cnc2ccc(Cl)cc21 [Example 1, (2R,3S)-2-(3-(6-chloro-1H-benzo[d]imidazol-1-yl)propyl)piperidin-3-ol]
2 | 100 to 500 nM | O[C@H]1CCCN[C@@H]1CCCn1cnc2c(Br)cccc21 [Example 2, (2R,3S)-2-(3-(4-bromo-1H-benzo[d]imidazol-1-yl)propyl)piperidin-3-ol]
3 | ≥ 500 nM | O[C@H]1CCCN[C@@H]1CCCn1cnc2cc(Br)ccc21 [Example 3, (2R,3S)-2-(3-(5-bromo-1H-benzo[d]imidazol-1-yl)propyl)piperidin-3-ol]
4 | 100 to 500 nM | O[C@H]1CCCN[C@@H]1CCCn1cnc2ccc(Br)cc21 [Example 4, (2R,3S)-2-(3-(6-bromo-1H-benzo[d]imidazol-1-yl)propyl)piperidin-3-ol]
5 | 100 to 500 nM | O[C@H]1CCCN[C@@H]1CCCn1cnc2cccc(Br)c21 [Example 5, (2R,3S)-2-(3-(7-bromo-1H-benzo[d]imidazol-1-yl)propyl)piperidin-3-ol]
6 | ≥ 500 nM | O[C@H]1CCCN[C@@H]1CCCn1cnc2c(F)cccc21 [Example 6, (2R,3S)-2-(3-(4-fluoro-1H-benzo[d]imidazol-1-yl)propyl)piperidin-3-ol]
7 | 100 to 500 nM | O[C@H]1CCCN[C@@H]1CCCn1cnc2cc(F)ccc21 [Example 7, (2R,3S)-2-(3-(5-fluoro-1H-benzo[d]imidazol-1-yl)propyl)piperidin-3-ol]
8 | ≥ 500 nM | O[C@H]1CCCN[C@@H]1CCCn1cnc2ccc(F)cc21 [Example 8, (2R,3S)-2-(3-(6-fluoro-1H-benzo[d]imidazol-1-yl)propyl)piperidin-3-ol]
9 | ≥ 500 nM | O[C@H]1CCCN[C@@H]1CCCn1cnc2cccc(F)c21 [Example 9, (2R,3S)-2-(3-(7-fluoro-1H-benzo[d]imidazol-1-yl)propyl)piperidin-3-ol]
10 | 100 to 500 nM | O[C@H]1CCCN[C@@H]1CCCn1cnc2c(Cl)cccc21 [Example 10, (2R,3S)-2-(3-(4-chloro-1H-benzo[d]imidazol-1-yl)propyl)piperidin-3-ol]
11 | 100 to 500 nM | O[C@H]1CCCN[C@@H]1CCCn1cnc2cc(Cl)ccc21 [Example 11, (2R,3S)-2-(3-(5-chloro-1H-benzo[d]imidazol-1-yl)propyl)piperidin-3-ol]
12 | 100 to 500 nM | O[C@H]1CCCN[C@@H]1CCCn1cnc2cccc(Cl)c21 [Example 12, (2R,3S)-2-(3-(7-chloro-1H-benzo[d]imidazol-1-yl)propyl)piperidin-3-ol]
13 | ≥ 500 nM | Cc1ccc2ncn(CCC[C@H]3NCCC[C@@H]3O)c2c1 [Example 13, (2R,3S)-2-(3-(6-methyl-1H-benzo[d]imidazol-1-yl)propyl)piperidin-3-ol]
14 | ≥ 500 nM | Cc1ccc2c(c1)ncn2CCC[C@H]1NCCC[C@@H]1O [Example 14, (2R,3S)-2-(3-(5-methyl-1H-benzo[d]imidazol-1-yl)propyl)piperidin-3-ol]
15 | 100 to 500 nM | O[C@H]1CCCN[C@@H]1CCCn1cnc2ccc(C(F)(F)F)cc21 [Example 15, (2R,3S)-2-(3-(6-(trifluoromethyl)-1H-benzo[d]imidazol-1-yl)propyl)piperidin-3-ol]
16 | 100 to 500 nM | O[C@H]1CCCN[C@@H]1CCCn1cnc2cccc(C(F)(F)F)c21 [Example 16, (2R,3S)-2-(3-(7-(trifluoromethyl)-1H-benzo[d]imidazol-1-yl)propyl)piperidin-3-ol]
17 | ≥ 500 nM | O[C@H]1CCCN[C@@H]1CCCn1cnc2cccc(OC(F)(F)F)c21 [Example 17, (2R,3S)-2-(3-(7-(trifluoromethoxy)-1H-benzo[d]imidazol-1-yl)propyl)piperidin-3-ol]
18 | ≥ 500 nM | O[C@H]1CCCN[C@@H]1CCCn1cnc2c(N3CCCC3)cccc21 [Example 18, (2R,3S)-2-(3-(4-(pyrrolidin-1-yl)-1H-benzo[d]imidazol-1-yl)propyl)piperidin-3-ol]
19 | ≥ 500 nM | O[C@H]1CCCN[C@@H]1CCCn1cnc2c(N3CCCCC3)cccc21 [Example 19, (2R,3S)-2-(3-(4-(piperidin-1-yl)-1H-benzo[d]imidazol-1-yl)propyl)piperidin-3-ol]
20 | ≥ 500 nM | O[C@H]1CCCN[C@@H]1CCCn1cnc2c(-c3cccc(F)c3)cccc21 [Example 20, (2R,3S)-2-(3-(4-(3-fluorophenyl)-1H-benzo[d]imidazol-1-yl)propyl)piperidin-3-ol]

Row | IC50 | Structure (SMILES)
21 | ≥ 500 nM | O[C@H]1CCCN[C@@H]1CCCn1cnc2c(-c3cccc(Cl)c3)cccc21 [Example 21, (2R,3S)-2-(3-(4-(3-chlorophenyl)-1H-benzo[d]imidazol-1-yl)propyl)piperidin-3-ol]
22 | ≥ 500 nM | O[C@H]1CCCN[C@@H]1CCCn1cnc2cc(-c3cccc(F)c3)ccc21 [Example 22, (2R,3S)-2-(3-(5-(3-fluorophenyl)-1H-benzo[d]imidazol-1-yl)propyl)piperidin-3-ol]
23 | 100 to 500 nM | O[C@H]1CCCN[C@@H]1CCCn1cnc2ccc(-c3ccccc3F)cc21 [Example 23, (2R,3S)-2-(3-(6-(2-fluorophenyl)-1H-benzo[d]imidazol-1-yl)propyl)piperidin-3-ol]
24 | ≤ 100 nM | O[C@H]1CCCN[C@@H]1CCCn1cnc2ccc(-c3cccc(F)c3)cc21 [Example 24, (2R,3S)-2-(3-(6-(3-fluorophenyl)-1H-benzo[d]imidazol-1-yl)propyl)piperidin-3-ol]
25 | ≥ 500 nM | O[C@H]1CCCN[C@@H]1CCCn1cnc2ccc(-c3ccc(F)cc3)cc21 [Example 25, (2R,3S)-2-(3-(6-(4-fluorophenyl)-1H-benzo[d]imidazol-1-yl)propyl)piperidin-3-ol]
26 | ≥ 500 nM | O[C@H]1CCCN[C@@H]1CCCn1cnc2cccc(-c3ccccc3F)c21 [Example 26, (2R,3S)-2-(3-(7-(2-fluorophenyl)-1H-benzo[d]imidazol-1-yl)propyl)piperidin-3-ol]
27 | 100 to 500 nM | O[C@H]1CCCN[C@@H]1CCCn1cnc2cccc(-c3cccc(F)c3)c21 [Example 27, (2R,3S)-2-(3-(7-(3-fluorophenyl)-1H-benzo[d]imidazol-1-yl)propyl)piperidin-3-ol]
28 | 100 to 500 nM | O[C@H]1CCCN[C@@H]1CCCn1cnc2cccc(-c3ccc(F)cc3)c21 [Example 28, (2R,3S)-2-(3-(7-(4-fluorophenyl)-1H-benzo[d]imidazol-1-yl)propyl)piperidin-3-ol]
29 | ≥ 500 nM | O[C@H]1CCCN[C@@H]1CCCn1cnc2cc(-c3cn[nH]c3)ccc21 [Example 29, (2R,3S)-2-(3-(5-(1H-pyrazol-4-yl)-1H-benzo[d]imidazol-1-yl)propyl)piperidin-3-ol]
30 | 100 to 500 nM | O[C@H]1CCCN[C@@H]1CCCn1cnc2ccc(-c3cn[nH]c3)cc21 [Example 30, (2R,3S)-2-(3-(6-(1H-pyrazol-4-yl)-1H-benzo[d]imidazol-1-yl)propyl)piperidin-3-ol]
31 | 100 to 500 nM | O[C@H]1CCCN[C@@H]1CCCn1cnc2cccc(-c3cn[nH]c3)c21 [Example 31, (2R,3S)-2-(3-(7-(1H-pyrazol-4-yl)-1H-benzo[d]imidazol-1-yl)propyl)piperidin-3-ol]
32 | 100 to 500 nM | O[C@H]1CCCN[C@@H]1CCCn1cnc2cc(F)c(Cl)cc21 [Example 32, (2R,3S)-2-(3-(6-chloro-5-fluoro-1H-benzo[d]imidazol-1-yl)propyl)piperidin-3-ol]
33 | 100 to 500 nM | O[C@H]1CCCN[C@@H]1CCCn1cnc2cc(F)c(Br)cc21 [Example 33, (2R,3S)-2-(3-(6-bromo-5-fluoro-1H-benzo[d]imidazol-1-yl)propyl)piperidin-3-ol]
34 | 100 to 500 nM | O[C@H]1CCCN[C@@H]1CCCn1cnc2cc(Cl)c(F)cc21 [Example 34, (2R,3S)-2-(3-(5-chloro-6-fluoro-1H-benzo[d]imidazol-1-yl)propyl)piperidin-3-ol]
35 | 100 to 500 nM | O[C@H]1CCCN[C@@H]1CCCn1cnc2cc(Br)c(F)cc21 [Example 35, (2R,3S)-2-(3-(5-bromo-6-fluoro-1H-benzo[d]imidazol-1-yl)propyl)piperidin-3-ol]
36 | 100 to 500 nM | O[C@H]1CCCN[C@@H]1CCCn1cnc2cc(Cl)c(Br)cc21 [Example 36, (2R,3S)-2-(3-(6-bromo-5-chloro-1H-benzo[d]imidazol-1-yl)propyl)piperidin-3-ol]
37 | 100 to 500 nM | COc1cc2ncn(CCC[C@H]3NCCC[C@@H]3O)c2cc1Cl [Example 37, (2R,3S)-2-(3-(6-chloro-5-methoxy-1H-benzo[d]imidazol-1-yl)propyl)piperidin-3-ol]
38 | ≥ 500 nM | COc1cc2ncn(CCC[C@H]3NCCC[C@@H]3O)c2cc1F [Example 38, (2R,3S)-2-(3-(6-fluoro-5-methoxy-1H-benzo[d]imidazol-1-yl)propyl)piperidin-3-ol]
39 | 100 to 500 nM | Cc1cc2c(cc1F)ncn2CCC[C@H]1NCCC[C@@H]1O [Example 39, (2R,3S)-2-(3-(5-fluoro-6-methyl-1H-benzo[d]imidazol-1-yl)propyl)piperidin-3-ol]

Row | Structure (SMILES) | IC50
40 | O[C@H]1CCCN[C@@H]1CCCn1cnc2c(Cl)c(Cl)ccc21 [Example 40, (2R,3S)-2-(3-(4,5-dichloro-1H-benzo[d]imidazol-1-yl)propyl)piperidin-3-ol] | ≤ 100 nM
41 | O[C@H]1CCCN[C@H]1CCCn1cnc2c(Cl)c(Cl)ccc21 [Example 41, (2S,3S)-2-(3-(4,5-dichloro-1H-benzo[d]imidazol-1-yl)propyl)piperidin-3-ol] | ≥ 500 nM
42 | O[C@@H]1CCCN[C@H]1CCCn1cnc2c(Cl)c(Cl)ccc21 [Example 42, (2S,3R)-2-(3-(4,5-dichloro-1H-benzo[d]imidazol-1-yl)propyl)piperidin-3-ol] | ≥ 500 nM
